Results from PubChem BioAssay (NCI).
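Where inhibition never reached the appropriate level, the endpoint shown equals the highest concentration tested. Otherwise, values were interpolated linearly from a five-concentration, 48-hour dose response in 96-well plates. The concentration for 50% growth inhibition is given as GI50. TGI marks complete inhibition of growth.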

Legend:
Assay in all cases: NCI anticancer screen, dose series, 48 h
[1] = system: 786-0 renal
[2] = system: A498 renal
[3] = system: A549 NSCLC
[4] = system: ACHN renal
[5] = system: BT-549 breast
[6] = system: CAKI-1 renal
[7] = system: CCRF-CEM leukemia
[8] = system: COLO 205 colon
[9] = system: DU-145 prostate
[10] = system: EKVX NSCLC
[11] = system: HCC-2998 colon
[12] = system: HCT-116 colon
[13] = system: HCT-15 colon
[14] = system: HL-60(TB) leukemia
[15] = system: HOP-62 NSCLC
[16] = system: HS 578T breast
[17] = system: HT29 colon
[18] = system: IGROV1 ovarian
[19] = system: K-562 leukemia
[20] = system: KM12 colon
[21] = system: LOX IMVI melanoma
[22] = system: M14 melanoma
[23] = system: MALME-3M melanoma
[24] = system: MCF7 breast
[25] = system: MDA-MB-231 breast
[26] = system: MDA-MB-435
[27] = system: MOLT-4 leukemia
[28] = system: NCI-H226 lung
[29] = system: NCI-H23 lung
[30] = system: NCI-H460 lung
[31] = system: NCI-H522 lung
[32] = system: NCI/ADR-RES ovarian
[33] = system: OVCAR-3 ovarian
[34] = system: OVCAR-4 ovarian
[35] = system: OVCAR-5 ovarian
[36] = system: OVCAR-8 ovarian
[37] = system: PC-3 prostate
[38] = system: RPMI-8226 leukemia
[39] = system: RXF 393 renal
[40] = system: SF-268 CNS
[41] = system: SF-295 CNS
[42] = system: SF-539 CNS
[43] = system: SK-MEL-2 melanoma
[44] = system: SK-MEL-28 melanoma
[45] = system: SK-MEL-5 melanoma
[46] = system: SK-OV-3 ovarian
[47] = system: SN12C renal
[48] = system: SNB-19 CNS
[49] = system: SNB-75 CNS
[50] = system: SR leukemia
[51] = system: SW-620 colon
[52] = system: T-47D breast
[53] = system: TK-10 renal
[54] = system: U251 CNS
[55] = system: UACC-257 melanoma
[56] = system: UACC-62 melanoma
[57] = system: UO-31 renal

Work on `O=C1OCC2=C1C(c1ccc(Cl)c(Cl)c1)c1cc3c(cc1N2CCO)CCC3` (centres undefined) yielded a GI50 [1] of 242 nM, a TGI [1] of 10200 nM and a GI50 [2] of 91.9 nM. For the same molecule, the TGI [2] was 1370 nM, the GI50 [3] was 195 nM and the TGI [3] was 8040 nM. It also gave a GI50 [4] of 371 nM, a TGI [4] of 12200 nM and a GI50 [5] of 1350 nM. For the same molecule, the TGI [5] was 10900 nM, the GI50 [6] was 145 nM and the TGI [6] was 7890 nM. The GI50 [7] was 257 nM, the TGI [7] was 13600 nM and the GI50 [8] was 175 nM. It also gave a TGI [8] of 702 nM, a GI50 [9] of 203 nM and a TGI [9] of 6560 nM. It also gave a GI50 [10] of 435 nM, a TGI [10] of 15600 nM and a GI50 [11] of 418 nM. It also gave a TGI [11] of 4290 nM, a GI50 [12] of 234 nM and a TGI [12] of 6590 nM. For the same molecule, the GI50 [13] was 215 nM, the TGI [13] was 20300 nM and the GI50 [14] was 172 nM. It also gave a TGI [14] of 1540 nM, a GI50 [15] of 229 nM and a TGI [15] of 9260 nM. For the same molecule, the GI50 [16] was 232 nM, the TGI [16] was 14300 nM and the GI50 [17] was 164 nM. For the same molecule, the TGI [17] was 646 nM, the GI50 [18] was 555 nM and the TGI [18] was 17800 nM. The GI50 [19] was 204 nM, the TGI [19] was 9710 nM and the GI50 [20] was 181 nM. For the same molecule, the TGI [20] was 6570 nM, the GI50 [21] was 303 nM and the TGI [21] was 10300 nM. It also gave a GI50 [22] of 200 nM, a TGI [22] of 6530 nM and a GI50 [23] of 193 nM. The TGI [23] was 16400 nM, the GI50 [24] was 157 nM and the TGI [24] was 7200 nM. The GI50 [25] was 747 nM, the TGI [25] was 9360 nM and the GI50 [26] was 61.1 nM. It also gave a TGI [26] of 183 nM, a GI50 [27] of 628 nM and a TGI [27] of 27800 nM. For the same molecule, the GI50 [28] was 248 nM, the TGI [28] was 6470 nM and the GI50 [29] was 239 nM. The TGI [29] was 12200 nM, the GI50 [30] was 186 nM and the TGI [30] was 6030 nM. It also gave a GI50 [31] of 110 nM, a TGI [31] of 371 nM and a GI50 [32] of 123 nM. The TGI [32] was 2300 nM, the GI50 [33] was 145 nM and the TGI [33] was 509 nM. The GI50 [34] was 326 nM, the TGI [34] was 21400 nM and the GI50 [35] was 336 nM. It also gave a TGI [35] of 15300 nM, a GI50 [36] of 221 nM and a TGI [36] of 8270 nM. For the same molecule, the GI50 [37] was 163 nM, the TGI [37] was 8760 nM and the GI50 [38] was 237 nM. It also gave a TGI [38] of 15100 nM, a GI50 [39] of 141 nM and a TGI [39] of 1460 nM. For the same molecule, the GI50 [40] was 343 nM, the TGI [40] was 9340 nM and the GI50 [41] was 108 nM. For the same molecule, the TGI [41] was 1500 nM, the GI50 [42] was 147 nM and the TGI [42] was 3320 nM. For the same molecule, the GI50 [43] was 192 nM, the TGI [43] was 6890 nM and the GI50 [44] was 323 nM. The TGI [44] was 11700 nM, the GI50 [45] was 181 nM and the TGI [45] was 7220 nM. For the same molecule, the GI50 [46] was 211 nM, the TGI [46] was 6000 nM and the GI50 [47] was 398 nM. The TGI [47] was 8910 nM, the GI50 [48] was 324 nM and the TGI [48] was 15200 nM. It also gave a GI50 [49] of 134 nM, a TGI [49] of 11700 nM and a GI50 [50] of 348 nM. For the same molecule, the TGI [50] was 16200 nM, the GI50 [51] was 166 nM and the TGI [51] was 10700 nM. For the same molecule, the GI50 [52] was 250 nM, the TGI [52] was 20600 nM and the GI50 [53] was 312 nM. The TGI [53] was 13200 nM, the GI50 [54] was 181 nM and the TGI [54] was 6290 nM. The GI50 [55] was 151 nM, the TGI [55] was 15700 nM and the GI50 [56] was 215 nM. The TGI [56] was 8600 nM, the GI50 [57] was 237 nM and the TGI [57] was 21200 nM.
